Experimental data as given in US7074789B2, “Kinase inhibitors” (Amgen Inc., priority 1999, dated 2006).
pIC50: −log10 of the molar value.

What was measured:
Format in all cases: biochemical
[1] = molecular target: T1, c-Met (Homo sapiens, UniProt P08581); assay: Kinase inhibition assay (33P transfer), c-Met; conditions: Table 2, class symbols A-E; read-out: Met-1
T1 construct: Kinases are expressed as either kinase domains or full length constructs; made in house
How it was run: (§1)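 Kinase domains or full-length enzymes, GST- or polyHis-tagged, were expressed in E. coli or baculovirus High Five cells and affinity-purified. Transfer of 33PO4 from ATP onto plate-bound poly(Glu,Tyr) 4:1 or poly(Arg,Ser) 3:1 was counted by liquid scintillation after a 0.5% phosphoric acid wash. IC50 = concentration halving incorporation.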

[2] = molecular target: T2, ErbB2 (Homo sapiens, UniProt P04626); assay: Kinase inhibition assay (33P transfer), ErbB2; conditions: read-out: ErbB2-2
T2 construct: Kinases are expressed as either kinase domains or full length constructs; made in house
T2 sequence (P04626 23-1255, species assumed): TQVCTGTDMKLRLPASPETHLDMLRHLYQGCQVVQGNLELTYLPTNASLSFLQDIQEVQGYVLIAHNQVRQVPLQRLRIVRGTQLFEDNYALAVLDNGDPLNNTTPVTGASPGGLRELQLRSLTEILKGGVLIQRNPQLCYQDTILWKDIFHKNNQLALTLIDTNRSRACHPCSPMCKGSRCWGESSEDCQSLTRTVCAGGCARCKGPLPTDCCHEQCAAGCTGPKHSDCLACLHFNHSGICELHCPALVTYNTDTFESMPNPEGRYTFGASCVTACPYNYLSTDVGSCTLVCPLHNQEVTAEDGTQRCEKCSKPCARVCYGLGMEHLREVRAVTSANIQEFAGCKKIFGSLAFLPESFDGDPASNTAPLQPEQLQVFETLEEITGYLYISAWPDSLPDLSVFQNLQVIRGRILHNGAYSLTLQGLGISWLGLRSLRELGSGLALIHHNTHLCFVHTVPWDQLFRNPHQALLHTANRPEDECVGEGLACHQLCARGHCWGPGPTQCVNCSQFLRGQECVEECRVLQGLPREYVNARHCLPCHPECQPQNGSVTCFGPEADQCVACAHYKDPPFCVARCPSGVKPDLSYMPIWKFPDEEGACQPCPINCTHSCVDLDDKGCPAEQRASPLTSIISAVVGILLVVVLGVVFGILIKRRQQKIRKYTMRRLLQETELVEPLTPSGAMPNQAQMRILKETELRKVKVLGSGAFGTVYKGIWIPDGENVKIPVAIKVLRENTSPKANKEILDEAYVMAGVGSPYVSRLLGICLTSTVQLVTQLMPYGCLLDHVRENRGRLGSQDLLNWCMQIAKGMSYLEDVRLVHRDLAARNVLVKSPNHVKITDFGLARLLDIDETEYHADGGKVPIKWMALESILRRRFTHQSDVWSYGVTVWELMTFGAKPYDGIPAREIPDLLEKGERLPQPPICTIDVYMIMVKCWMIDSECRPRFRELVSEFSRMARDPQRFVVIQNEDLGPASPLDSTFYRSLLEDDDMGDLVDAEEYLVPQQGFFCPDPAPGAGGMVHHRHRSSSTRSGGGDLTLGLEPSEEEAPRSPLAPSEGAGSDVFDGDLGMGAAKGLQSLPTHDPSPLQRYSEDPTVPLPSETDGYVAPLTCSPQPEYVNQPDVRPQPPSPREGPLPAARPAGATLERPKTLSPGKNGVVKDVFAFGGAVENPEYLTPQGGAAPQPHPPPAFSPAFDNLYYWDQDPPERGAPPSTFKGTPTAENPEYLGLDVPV
How it was run: as §1

[3] = molecular target: T3, Lck (Homo sapiens, UniProt P06239); assay: Kinase inhibition assay (33P transfer), Lck; conditions: Table 3, class symbols; read-out: Lck-1
T3 construct: Kinases are expressed as either kinase domains or full length constructs; made in house
T3 sequence (P06239 whole entry, species assumed, the tested form may be a part): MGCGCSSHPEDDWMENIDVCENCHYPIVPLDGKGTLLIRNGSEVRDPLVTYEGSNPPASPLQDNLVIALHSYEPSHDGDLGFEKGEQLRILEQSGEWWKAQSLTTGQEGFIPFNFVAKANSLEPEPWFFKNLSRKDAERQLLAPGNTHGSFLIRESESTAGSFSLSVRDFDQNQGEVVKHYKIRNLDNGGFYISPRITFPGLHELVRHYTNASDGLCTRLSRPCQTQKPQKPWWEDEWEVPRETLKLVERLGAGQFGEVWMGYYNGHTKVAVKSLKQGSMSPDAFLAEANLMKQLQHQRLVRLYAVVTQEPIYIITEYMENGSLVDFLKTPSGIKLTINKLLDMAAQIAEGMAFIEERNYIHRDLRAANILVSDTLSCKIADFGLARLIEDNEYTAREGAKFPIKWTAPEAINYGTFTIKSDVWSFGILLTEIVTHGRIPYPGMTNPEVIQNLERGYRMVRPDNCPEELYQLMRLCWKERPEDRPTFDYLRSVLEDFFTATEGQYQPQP
How it was run: (§2)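 Enzyme activity is taken as the amount of 33PO4 moved from ATP onto poly(Glu, Tyr) 4:1 or poly(Arg, Ser) 3:1 fixed to the plate surface. Unbound label is removed with 0.5% phosphoric acid before scintillation counting.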

[4] = molecular target: T4, EGFR (Homo sapiens, UniProt P00533); assay: Kinase inhibition assay (33P transfer), EGFR; conditions: Table 2, class symbols A-E; read-out: EGFR-1
T4 construct: Kinases are expressed as either kinase domains or full length constructs; made in house
T4 sequence (P00533 25-1210, species assumed): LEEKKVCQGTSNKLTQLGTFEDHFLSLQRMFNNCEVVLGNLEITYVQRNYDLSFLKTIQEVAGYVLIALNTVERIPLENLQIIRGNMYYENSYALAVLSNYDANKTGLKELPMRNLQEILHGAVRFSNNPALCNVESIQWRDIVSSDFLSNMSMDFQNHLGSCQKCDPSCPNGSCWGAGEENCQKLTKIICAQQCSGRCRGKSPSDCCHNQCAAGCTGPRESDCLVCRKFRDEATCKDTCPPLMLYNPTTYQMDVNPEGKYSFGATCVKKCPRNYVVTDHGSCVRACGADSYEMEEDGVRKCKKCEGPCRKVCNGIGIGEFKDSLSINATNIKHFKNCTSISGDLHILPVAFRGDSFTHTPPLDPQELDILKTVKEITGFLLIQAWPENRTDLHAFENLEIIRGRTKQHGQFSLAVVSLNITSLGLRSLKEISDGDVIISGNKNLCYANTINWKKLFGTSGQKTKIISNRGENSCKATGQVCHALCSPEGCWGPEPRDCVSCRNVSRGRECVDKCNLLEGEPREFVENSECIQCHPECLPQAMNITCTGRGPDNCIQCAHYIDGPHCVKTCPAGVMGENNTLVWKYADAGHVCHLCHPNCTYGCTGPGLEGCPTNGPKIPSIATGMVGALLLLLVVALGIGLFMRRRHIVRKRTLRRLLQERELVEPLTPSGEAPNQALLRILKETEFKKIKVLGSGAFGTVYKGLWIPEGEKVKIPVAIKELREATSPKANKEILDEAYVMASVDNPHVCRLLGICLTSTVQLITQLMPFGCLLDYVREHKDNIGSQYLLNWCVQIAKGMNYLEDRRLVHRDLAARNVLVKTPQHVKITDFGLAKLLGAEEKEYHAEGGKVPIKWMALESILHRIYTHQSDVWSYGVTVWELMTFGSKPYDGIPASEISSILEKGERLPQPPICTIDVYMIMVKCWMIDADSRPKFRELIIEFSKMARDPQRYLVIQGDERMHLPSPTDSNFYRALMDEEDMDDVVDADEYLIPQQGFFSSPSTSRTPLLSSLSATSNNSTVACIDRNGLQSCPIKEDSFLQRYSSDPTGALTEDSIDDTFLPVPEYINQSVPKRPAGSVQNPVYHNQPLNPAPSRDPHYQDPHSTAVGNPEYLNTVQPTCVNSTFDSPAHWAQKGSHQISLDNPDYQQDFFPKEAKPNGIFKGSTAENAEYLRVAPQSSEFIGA
How it was run: as §1

[5] = molecular target: T5, Itk (Homo sapiens, UniProt Q08881); assay: Kinase inhibition assay (33P transfer), Itk; conditions: Table 3, class symbols; read-out: Itk-1
T5 construct: Kinases are expressed as either kinase domains or full length constructs; made in house
T5 sequence (Q08881 1-620): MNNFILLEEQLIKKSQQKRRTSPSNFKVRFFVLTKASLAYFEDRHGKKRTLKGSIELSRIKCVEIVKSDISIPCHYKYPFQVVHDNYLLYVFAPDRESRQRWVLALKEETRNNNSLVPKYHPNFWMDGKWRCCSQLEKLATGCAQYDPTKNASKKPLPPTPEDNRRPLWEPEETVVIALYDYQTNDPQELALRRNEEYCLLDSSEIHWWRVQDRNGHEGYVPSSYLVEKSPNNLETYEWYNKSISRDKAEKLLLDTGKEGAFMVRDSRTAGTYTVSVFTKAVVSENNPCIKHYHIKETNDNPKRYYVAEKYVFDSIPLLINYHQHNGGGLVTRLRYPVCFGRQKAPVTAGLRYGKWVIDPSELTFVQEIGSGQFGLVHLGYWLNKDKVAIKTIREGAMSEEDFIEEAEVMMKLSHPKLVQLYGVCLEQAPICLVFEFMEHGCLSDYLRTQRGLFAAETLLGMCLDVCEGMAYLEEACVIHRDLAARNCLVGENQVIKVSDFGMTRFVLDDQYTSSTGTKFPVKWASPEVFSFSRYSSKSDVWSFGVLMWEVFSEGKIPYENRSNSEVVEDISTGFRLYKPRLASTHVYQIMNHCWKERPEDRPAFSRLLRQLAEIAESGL
How it was run: as §1

[6] = molecular target: T6, Zap-70 (Homo sapiens, UniProt P43403); assay: Kinase inhibition assay (33P transfer), Zap-70; conditions: Table 3, class symbols; read-out: Zap-1
T6 construct: Kinases are expressed as either kinase domains or full length constructs; made in house
T6 sequence (P43403 1-619): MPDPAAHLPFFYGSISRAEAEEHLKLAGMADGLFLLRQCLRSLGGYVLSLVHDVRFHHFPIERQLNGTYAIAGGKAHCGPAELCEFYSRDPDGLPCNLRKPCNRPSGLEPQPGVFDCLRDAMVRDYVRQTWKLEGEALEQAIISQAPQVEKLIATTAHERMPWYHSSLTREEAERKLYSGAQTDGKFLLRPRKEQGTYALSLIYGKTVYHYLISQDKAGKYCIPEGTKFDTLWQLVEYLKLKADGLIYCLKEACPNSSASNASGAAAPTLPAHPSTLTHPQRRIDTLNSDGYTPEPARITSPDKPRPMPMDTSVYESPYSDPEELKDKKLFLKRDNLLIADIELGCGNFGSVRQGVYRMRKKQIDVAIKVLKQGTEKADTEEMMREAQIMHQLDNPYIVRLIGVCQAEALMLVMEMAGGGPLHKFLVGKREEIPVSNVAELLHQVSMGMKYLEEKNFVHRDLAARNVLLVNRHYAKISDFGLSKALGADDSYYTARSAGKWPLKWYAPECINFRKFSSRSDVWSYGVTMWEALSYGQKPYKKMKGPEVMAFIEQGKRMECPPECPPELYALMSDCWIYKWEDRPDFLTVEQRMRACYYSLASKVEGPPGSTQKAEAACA
How it was run: as §2

[7] = molecular target: T7, Kdr (Homo sapiens, UniProt P35968); assay: Kinase inhibition assay (33P transfer), Kdr; conditions: Table 3, class symbols; read-out: KDR-1
T7 construct: Kinases are expressed as either kinase domains or full length constructs; made in house
T7 sequence (P35968 20-1356, species assumed): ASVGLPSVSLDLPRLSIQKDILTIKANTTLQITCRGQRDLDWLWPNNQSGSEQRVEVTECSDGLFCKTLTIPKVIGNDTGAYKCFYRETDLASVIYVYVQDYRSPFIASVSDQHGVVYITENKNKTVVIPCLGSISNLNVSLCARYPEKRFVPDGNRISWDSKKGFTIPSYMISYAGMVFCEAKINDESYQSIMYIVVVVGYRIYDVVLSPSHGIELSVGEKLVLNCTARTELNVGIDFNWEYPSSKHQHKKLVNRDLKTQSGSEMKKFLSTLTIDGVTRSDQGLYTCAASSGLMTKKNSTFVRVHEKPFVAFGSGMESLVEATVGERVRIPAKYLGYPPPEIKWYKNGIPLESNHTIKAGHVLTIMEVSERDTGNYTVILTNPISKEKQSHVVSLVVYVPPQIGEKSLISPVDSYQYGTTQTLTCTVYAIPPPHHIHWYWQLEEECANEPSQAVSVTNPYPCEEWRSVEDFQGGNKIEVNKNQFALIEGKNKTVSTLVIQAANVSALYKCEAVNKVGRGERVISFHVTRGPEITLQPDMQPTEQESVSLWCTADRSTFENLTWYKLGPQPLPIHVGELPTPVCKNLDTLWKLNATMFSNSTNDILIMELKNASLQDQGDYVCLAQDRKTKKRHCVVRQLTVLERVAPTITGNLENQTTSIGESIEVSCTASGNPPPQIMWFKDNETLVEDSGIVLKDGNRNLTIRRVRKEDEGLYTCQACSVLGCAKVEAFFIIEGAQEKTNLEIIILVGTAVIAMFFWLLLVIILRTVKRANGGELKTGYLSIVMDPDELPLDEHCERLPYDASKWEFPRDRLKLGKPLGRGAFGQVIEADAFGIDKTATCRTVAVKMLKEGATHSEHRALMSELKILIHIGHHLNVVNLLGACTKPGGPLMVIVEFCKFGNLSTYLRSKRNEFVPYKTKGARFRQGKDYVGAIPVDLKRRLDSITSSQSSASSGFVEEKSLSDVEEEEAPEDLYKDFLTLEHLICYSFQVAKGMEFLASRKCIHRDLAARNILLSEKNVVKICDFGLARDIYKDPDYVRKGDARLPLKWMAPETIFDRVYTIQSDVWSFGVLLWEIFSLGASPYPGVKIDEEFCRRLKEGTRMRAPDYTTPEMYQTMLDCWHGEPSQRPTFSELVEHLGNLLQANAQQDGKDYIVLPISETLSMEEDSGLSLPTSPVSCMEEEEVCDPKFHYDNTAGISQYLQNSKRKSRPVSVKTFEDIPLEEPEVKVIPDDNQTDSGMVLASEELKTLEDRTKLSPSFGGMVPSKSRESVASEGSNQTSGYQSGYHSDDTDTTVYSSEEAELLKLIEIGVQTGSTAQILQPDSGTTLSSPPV
How it was run: as §2

[8] = molecular target: T8, IGFR-1 (Homo sapiens, UniProt P08069); assay: Kinase inhibition assay (33P transfer), IGFR-1; conditions: Table 2, class symbols A-E
T8 construct: Kinases are expressed as either kinase domains or full length constructs; made in house

[9] = molecular target: T9, AKT (Homo sapiens, UniProt Q9Y243); assay: Kinase inhibition assay (33P transfer), AKT; conditions: Table 2, class symbols A-E; read-out: AKT3-1
T9 construct: Kinases are expressed as either kinase domains or full length constructs; made in house
T9 sequence (Q9Y243 whole entry, the tested form may be a part): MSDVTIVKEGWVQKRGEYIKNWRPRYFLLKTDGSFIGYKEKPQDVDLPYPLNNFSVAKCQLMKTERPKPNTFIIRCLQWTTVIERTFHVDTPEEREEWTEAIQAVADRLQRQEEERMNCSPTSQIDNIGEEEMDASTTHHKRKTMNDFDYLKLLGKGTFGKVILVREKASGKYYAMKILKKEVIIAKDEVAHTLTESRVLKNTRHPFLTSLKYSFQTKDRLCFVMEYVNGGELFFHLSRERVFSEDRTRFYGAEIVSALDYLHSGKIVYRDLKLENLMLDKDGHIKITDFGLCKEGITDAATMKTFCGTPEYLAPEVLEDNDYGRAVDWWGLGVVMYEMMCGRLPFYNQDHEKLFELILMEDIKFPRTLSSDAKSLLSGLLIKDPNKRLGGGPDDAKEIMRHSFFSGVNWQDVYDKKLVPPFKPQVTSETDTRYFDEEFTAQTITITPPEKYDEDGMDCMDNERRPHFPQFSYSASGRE
How it was run: as §2

[10] = molecular target: T10, PDGFRB (Homo sapiens, UniProt P09619); assay: Kinase inhibition assay (33P transfer), PDGFRB; conditions: read-out: PDGFRB-1
T10 construct: Kinases are expressed as either kinase domains or full length constructs; made in house

Structure (SMILES) | pIC50 [1] | pIC50 [2] | pIC50 [3] | pIC50 [4] | pIC50 [5] | pIC50 [6] | pIC50 [7] | pIC50 [8] | pIC50 [9] | pIC50 [10]
COC(=O)c1ccc(-c2cc(Nc3ncnc(NC4=NC(=O)CS4)n3)[nH]n2)cc1 [Compound 881] | 5.23 to 6.01 | 5.23 to 6.01 | < 4.96 | 5.23 to 6.01 | 5.23 to 6.01 | < 4.96 | 5.23 to 6.01 | 5.23 to 6.01 | < 4.96 | 5.23 to 6.01
COc1cc(Nc2ncnc(N(CCO)c3ccccc3)n2)cc(OC)c1OC [Compound 637] | 5.06 to 5.22 | 5.06 to 5.22 | 5.22 to 6.00 | > 6.00 | < 4.95 | < 4.95 | 5.22 to 6.00 | < 4.95 | < 4.95 | 5.06 to 5.22
COc1cc(Nc2ncnc(-c3cccnc3NC(C)C)n2)ccc1NC(=O)CCCN1CCNCC1 [Compound 1096] | 5.05 to 5.16 | < 5.05 | 5.32 to 6.10 | < 5.05 | 5.16 to 5.32 | < 5.05 | 5.32 to 6.10 | < 5.05 | 5.05 to 5.16 | > 6.10
COc1cc(Nc2ncnc(Nc3ccc(OCCO)cc3)n2)cc(OC)c1OC [Compound 636] | < 4.96 | 5.24 to 6.01 | > 6.01 | 5.24 to 6.01 | < 4.96 | < 4.96 | > 6.01 | < 4.96 | < 4.96 | > 6.01
CCOc1cccc(Nc2ncnc(N3CCCc4cc(C)ccc43)n2)c1 [Compound 892] | 5.18 to 5.96 | 5.18 to 5.96 | 5.18 to 5.96 | > 5.96 | 4.90 to 5.01 | < 4.90 | 5.18 to 5.96 | < 4.90 | < 4.90 | > 5.96
COc1cc(Nc2ncnc(NC(=O)Cc3ccccc3)n2)cc(OC)c1OC [Compound 679] | < 4.94 | 5.05 to 5.22 | 5.22 to 5.99 | 5.22 to 5.99 | < 4.94 | < 4.94 | 4.94 to 5.05 | < 4.94 | < 4.94 | 4.94 to 5.05
c1ccc(Nc2ncccc2-c2ncnc(Nc3cccc(Cn4ccnn4)c3)n2)cc1 [Compound 1095] | < 4.97 | < 4.97 | < 4.97 | < 4.97 | < 4.97 | < 4.97 | > 6.02 | < 4.97 | < 4.97 | > 6.02
COc1cc(Nc2ncnc(-c3cccnc3Nc3cccc4c3CCCC4)n2)cc(OC)c1OC [Compound 841] | < 5.03 | < 5.03 | < 5.03 | < 5.03 | < 5.03 | < 5.03 | < 5.03 | < 5.03 | < 5.03 | < 5.03
c1ccc(CNc2nc3ccccc3n2-c2ncnc(Nc3cccc(Cn4ccnn4)c3)n2)nc1 [Compound 962] | < 5.02 | 5.02 to 5.13 | 5.30 to 6.08 | 5.13 to 5.30 | < 5.02 | < 5.02 | > 6.08 | 5.02 to 5.13 | < 5.02 | > 6.08
COc1ccc(Nc2ncnc(Nc3ccc4c(c3)CCC4)n2)cc1OC [Compound 896] | 5.18 to 5.96 | 5.18 to 5.96 | < 4.91 | 5.18 to 5.96 | 5.02 to 5.18 | < 4.91 | 5.02 to 5.18 | 5.18 to 5.96 | 5.02 to 5.18 | > 5.96
COc1cc(Nc2ncnc(-c3cccnc3NC(C)c3ccccc3)n2)cc(OC)c1OC (centres unmarked) [Compound 843] | < 5.01 | 5.01 to 5.12 | > 6.06 | < 5.01 | < 5.01 | < 5.01 | > 6.06 | < 5.01 | < 5.01 | > 6.06

Next, values leading:

pIC50 [1] | pIC50 [2] | pIC50 [3] | pIC50 [4] | pIC50 [5] | pIC50 [6] | pIC50 [7] | pIC50 [8] | pIC50 [9] | pIC50 [10] | Structure (SMILES)
5.26 to 6.04 | 5.26 to 6.04 | < 4.98 | 5.26 to 6.04 | 5.26 to 6.04 | 5.09 to 5.26 | > 6.04 | 5.26 to 6.04 | 4.98 to 5.09 | 5.26 to 6.04 | O=C(O)CCNC(=O)c1ccc(Nc2ncnc(Nc3cc(-c4ccco4)[nH]n3)n2)cc1 [Compound 885]
5.20 to 5.97 | 5.20 to 5.97 | 5.20 to 5.97 | > 5.97 | 5.20 to 5.97 | < 4.92 | > 5.97 | 5.20 to 5.97 | < 4.92 | 5.20 to 5.97 | CNC(=O)c1cccc(Nc2ncnc(Nc3cc(-c4ccco4)[nH]n3)n2)c1 [Compound 826]
5.23 to 6.01 | 5.07 to 5.23 | 4.96 to 5.07 | < 4.96 | 5.23 to 6.01 | 4.96 to 5.07 | 5.23 to 6.01 | 5.07 to 5.23 | 5.23 to 6.01 | 5.23 to 6.01 | COc1ccc(CCNc2ncnc(Nc3cc(-c4ccco4)[nH]n3)n2)cc1OC [Compound 823]
> 5.98 | > 5.98 | 5.21 to 5.98 | > 5.98 | > 5.98 | 5.21 to 5.98 | > 5.98 | > 5.98 | > 5.98 | > 5.98 | c1cc(Nc2ncnc(Nc3cc(-c4ccco4)[nH]n3)n2)cc(-c2cnco2)c1 [Compound 824]
< 4.93 | 5.04 to 5.20 | 5.20 to 5.98 | 5.20 to 5.98 | 5.20 to 5.98 | < 4.93 | 5.20 to 5.98 | > 5.98 | < 4.93 | > 5.98 | COc1ccc(Nc2ncnc(Nc3ccc4ncsc4c3)n2)cc1OC [Compound 895]
< 4.87 | < 4.87 | < 4.87 | 5.14 to 5.92 | 4.87 to 4.98 | < 4.87 | 4.98 to 5.14 | 4.98 to 5.14 | < 4.87 | 5.14 to 5.92 | c1ccc(CNc2ncnc(Nc3cc(-c4ccco4)n[nH]3)n2)nc1 [Compound 995]
5.19 to 5.97 | 5.19 to 5.97 | 5.19 to 5.97 | 5.19 to 5.97 | 5.19 to 5.97 | 5.02 to 5.19 | > 5.97 | > 5.97 | 5.19 to 5.97 | > 5.97 | c1ccc(-c2cc(Nc3ncnc(Nc4ccc5[nH]ncc5c4)n3)[nH]n2)cc1 [Compound 1013]
5.24 to 6.01 | 5.24 to 6.01 | 5.24 to 6.01 | > 6.01 | < 4.96 | < 4.96 | > 6.01 | < 4.96 | < 4.96 | > 6.01 | O=C(O)Cc1cccc(Nc2ncnc(-c3cccnc3NCc3ccccc3)n2)c1 [Compound 1099]
< 4.97 | < 4.97 | < 4.97 | < 4.97 | < 4.97 | < 4.97 | < 4.97 | < 4.97 | < 4.97 | < 4.97 | COc1cc(CNc2ncnc(Nc3cc(-c4ccco4)n[nH]3)n2)cc(OC)c1OC [Compound 997]
